These results are taken from patent US20060040870A1, “Enhancement of apoptosis by caspase-9 inhibitors” (priority 2004, published 2006).

The star is where a group is joined. Cbz = O=C(OCc1ccccc1)*; CH2F = FC*

The subject of assay [1] is CD19+ B-cell precursors. Put plainly: Annexin V staining of sorted cord blood-derived CD19+ B-cell precursors removed from MS-5 stroma. In kind it is cell-based, human. To be noted: cultured 18 hours, DMSO control 46.5 ± 1.4, Time 0 1.5. The protocol: Normal B-lineage cells. CD19+ B-lineage cells were derived from CD34+ human cord blood stem cells plated on the murine stromal cell line MS-5 (Itoh Exp Hematol. 1989;17:145-153). MS-5 stromal cells were kindly provided by Dr. Paul Kincade (University of Oklahoma Medical Research Foundation), following permission from Professor K. John Mori (Niigata University, Japan). FACS-purified CD34+/CD38+/lineage—cord blood hematopoietic stem cells were plated onto confluent, non-irradiated MS-5 stromal cells in 96-well flat-bottom plates (200 cells/well) containing Minimal Essential Medium supplemented with 10% FBS. Stem cell factor and G-CSF were added at 10 ng/ml (twice weekly) to enhance the emergence of CD19+ B-lineage cells (Nishihara Eur J Immunol. 1998;28:855-864; Ohkawara Leukemia. 1998;12:764-771). […] Wells were then pooled, stained with PE-conjugated anti-CD 19 + propidium iodide (PI), and sorted on a FACSVantage (BD Immunocytometry Systems, San Jose, Calif.). Cord blood CD34+/CD38+/lineage—cells were provided by Valerie McCullar and Dr. Jeff Miller of the University of Minnesota Cancer Center in accordance with the University of Minnesota Institutional Review Board on Human Subjects.
Flow cytometry. Quantitation of apoptotic events was conducted using a FACS Calibur (BD Immunocytometry Systems). […]

The subject of assay [2] is RAMOS Burkitt lymphoma cell line. Put plainly: Apoptosis by Annexin V staining and flow cytometry, RAMOS. It counts as cell-based, human. As to conditions: 50 μM, 18 hours. A general note: Flow cytometry measures light scatter and fluorescence of single cells or particles in a stream.
Assay [3] relates to JURKAT T lymphoma cells. Put plainly: Fas response of JURKAT T lymphoma cells. It counts as cell-based. To be noted: 50 μM.
Assay [4] has as its system BLIN-3 cells. Put plainly: Loss of mitochondrial transmembrane potential (TMRE) and YO-PRO permeability in BLIN-3. It counts as cell-based, human. To be noted: BLIN-3, FIG. 2. On the procedure: Numbers in the histograms indicate the percentage of PI^- cells that underwent a loss of Δψm. Numbers in the contour plots indicate the percentage of Annexin V^+/PI^- cells. […] Numbers in the contour plots indicate the percentage of YO^- PRO^+/PI^- cells. Numbers in the histograms indicate the percentage of PI^- cells that underwent a loss of Δψm. Flow cytometry. Quantitation of apoptotic events was conducted using a FACS Calibur (BD Immunocytometry Systems). All analyses were conducted on cells with lymphoid light scatter characteristics (i.e., low to medium forward scatter and low 90° side scatter). i. Mitochondrial transmembrane potential (Δψm). The cationic lipophilic fluorescent dye tetramethylrhodamine, ethyl ester, perchlorate (TMRE) was purchased from Molecular Probes, Inc. (Eugene, Oreg.). TMRE has a high degree of membrane permeability and accumulates into mitochondria in accord with the Nernstian equation (Farkas Biophys J. 1989;56:1053-1069). Cells were washed once and re-suspended to 0.5-1.0×10^6/ml in X-VIVO 10. TMRE was added to a final concentration of 50 nM and the cells were incubated in the dark at 37° C. for 15 minutes. […] ii. YO-[…]. The green fluorescent DNA intercalant dye YO-PRO-1 (Idziorek J Immunol Methods. 1995;185:249-258) was purchased from Molecular Probes as the Vybrant Apoptosis Assay Kit #4. […]

Assay [5] relates to BLIN-1 cells. Put plainly: Apoptosis by Annexin V staining and flow cytometry, BLIN-1. In kind it is cell-based, human. To be noted: BLIN-1, 50 μM, 18 hours. The protocol:
(§1) Flow cytometry. Quantitation of apoptotic events was conducted using a FACS Calibur (BD Immunocytometry Systems). All analyses were conducted on cells with lymphoid light scatter characteristics (i.e., low to medium forward scatter and low 90° side scatter).
(§2) iii. Annexin V. FITC-labeled Annexin V (BD Pharmingen, San Diego, Calif.) was used to detect external phosphatidylserine residues appearing on the external surface of early apoptotic cells (Koopman Blood. 1994;84:1415-1420). Cells were stained according to the manufacturers recommendations.
(§3) General experimental strategy. BLIN cell lines were removed from fibroblast monolayers, washed once and resuspended to 7.5×10^5/ml in X-VIVO 10. Two hundred μL of resuspended cells were added to 96-well flat-bottom microtiter plates (ISC Bioexpress, Kaysville, Vt.), followed by 0.5-1.0 μL of caspase inhibitors in DMSO. An identical volume of DMSO alone was added to separate wells as a vehicle control. This final DMSO concentration of 0.25-0.5% vol/vol had no adverse affect on any of the BLIN cell lines. At the indicated times the entire content of individual wells was harvested and stained in the fluorescent protocols described above.
The inventors carried out experiments to test the influence of specific amino acid substitutions on the proapoptotic activity Z-LEHD-fmk. […]

Assay [6] relates to JURKAT T lymphoma cell line. Put plainly: Apoptosis by Annexin V staining and flow cytometry, JURKAT. It counts as cell-based. As to conditions: 50 μM, 18 hours. The protocol:
FIG. 4 is a pair of graphs showing the effect of […] on various cell lines, as determined by Annexin V staining and flow cytometry. The cells included the B-cell precursor ALL cell lines […], and NALM-6, the RAMOS, RAJI, and DAUDI Burkitt lymphoma cell lines, the CCRF-CEM, JURKAT, and H9 T lymphoma cell lines, the K-562 erythroleukemia cell line, and resting or activated (i.e., CD3/CD28 cross-linked) normal human T cells. […] Flow cytometry. Quantitation of apoptotic events was conducted using a FACS Calibur (BD Immunocytometry Systems). All analyses were conducted on cells with lymphoid light scatter characteristics (i.e., low to medium forward scatter and low 90° side scatter). iii. Annexin V. […] Cells were stained according to the manufacturers recommendations.

Assay [7] concerns BLIN-3 cells. Put plainly: Apoptosis by Annexin V staining and flow cytometry, BLIN-3. In kind it is cell-based, human. The protocol:
as §1, §2, §3
The inventors carried out experiments to test the influence of specific amino acid substitutions on the proapoptotic activity Z-LEHD-fmk. Cells were cultured for 24 hours with various μM concentrations of Z-LEDH-fmk or single amino acid substitution of the parent peptide. All values in the following Table 3 represent the percentage of total Annexin V+ cells (PI+ and PI−) minus the percentage present in culture with DMSO alone (BLIN-2=3%; BLIN-3+7%; BLIN4L=5%).

On to “Z-LEHD-fmk (Cbz-LEHD-CH2F; SMILES CC(C)C[C@H](NC(=O)OCc1ccccc1)C(=O)N[C@@H](CCC(=O)O)C(=O)N[C@@H](Cc1c[nH]cn1)C(=O)N[C@@H](CC(=O)O)C(=O)CF) [C9i]”, for which the “percentage of total Annexin V+ cells (PI+ and PI−), mean ± SD” value in assay [1] came to 56.0 ± 3.2 %. In addition, the “sensitivity (fold-increase in Annexin V+ cells vs DMSO)” value in assay [2] is reported as “extremely sensitive”; in assay [5] it was “sensitive”; in assay [6], “sensitive”; in assay [7] (BLIN-3, 50 μM, 18 hours), “sensitive”. Besides, the “Fas response of JURKAT T lymphoma cells” value in assay [3] is on record as “blocked the Fas response”. For the same substance, the “enhancement of apoptosis (YO-PRO+/PI− cells, reduced TMRE staining) versus concentration” value in assay [4] is listed as “dose-dependent”. Moreover, in assay [7] (BLIN-3 removed from adherent fibroblasts, 50 μM, 2-hour time points up to 8 hours), the “apoptosis (Annexin V and TMRE staining) versus DMSO vehicle” value was “pronounced enhancement of apoptosis”.
